In brackets after ≈: the same amount, converted by molar mass.
How the values were obtained:
[1] = test system: HeLa; assay: Cytotoxicity against HeLa cells assessed as alteration in morphology after 3 days; type: functional, cell-based; details: Homo sapiens, 72 h
[2] = test system: Human alphaherpesvirus 2; type: functional, organism-based; details: Human alphaherpesvirus 2, Lyons, HEL
[3] = test system: Human alphaherpesvirus 2; type: functional, organism-based; details: Human alphaherpesvirus 2, G, HEL
[4] = test system: Human alphaherpesvirus 3; type: functional, organism-based; details: Human alphaherpesvirus 3, OKA, HEL
[5] = test system: Human alphaherpesvirus 3; type: functional, organism-based; details: Human alphaherpesvirus 3, 07-1, HEL
[6] = test system: Human betaherpesvirus 5; type: functional, organism-based; details: Human betaherpesvirus 5, AD169, HEL
[7] = test system: Human betaherpesvirus 5; type: functional, organism-based; details: Human betaherpesvirus 5, Davis, HEL
[8] = test system: Human adenovirus 2; type: functional, organism-based; details: Human mastadenovirus C, HEL
[9] = test system: HEL; assay: Cytotoxicity against HEL cells assessed as alteration in morphology after 3 days; type: functional; details: Homo sapiens, 72 h
[10] = Cytotoxicity against HSB2 cells assessed as alteration in morphology after 3 days; type: functional, Homo sapiens, CCRF-HSB-2
[11] = test system: MOLT-3; assay: Cytotoxicity against MOLT3 cells assessed as alteration in morphology after 3 days; type: functional, Homo sapiens
[12] = test system: HEL; assay: Cytotoxicity against HEL cells assessed as cell growth after 3 days; type: functional, Homo sapiens
[13] = test system: Human immunodeficiency virus 1; type: functional, organism-based; details: Human immunodeficiency virus 1, 3B, CCRF-CEM, 96 h
[14] = test system: Human immunodeficiency virus 2; type: functional, organism-based; details: Human immunodeficiency virus 2, ROD, CCRF-CEM, 96 h
[15] = test system: Coxsackievirus B4; type: functional, organism-based; details: Enterovirus B, HeLa
[16] = test system: Coxsackievirus B4; type: functional, organism-based; details: Enterovirus B, Vero
[17] = test system: Respiratory syncytial virus; type: functional, organism-based; details: human respiratory syncytial virus, HeLa
[18] = test system: Human respirovirus 3; assay: Antiviral activity against Parainfluenza 3 in Vero cells reduction of virus-induced cytopathogenicity after 4 days; type: functional, organism-based; details: Human respirovirus 3, Vero, 96 h
[19] = test system: Mammalian orthoreovirus 1; assay: Antiviral activity against Reovirus 1 in Vero cells reduction of virus-induced cytopathogenicity after 4 days; type: functional, organism-based; details: Mammalian orthoreovirus 1, Vero, 96 h
[20] = test system: Sindbis virus; assay: Antiviral activity against Sindbis virus in Vero cells reduction of virus-induced cytopathogenicity after 4 days; type: functional, organism-based; details: 96 h
[21] = test system: Punta Toro virus; assay: Antiviral activity against Punta Toro virus in Vero cells reduction of virus-induced cytopathogenicity after 4 days; type: functional, organism-based; details: 96 h
[22] = test system: Vero; assay: (§1) Cytotoxicity against Vero cells assessed as alteration in morphology after 3 days; type: cell-based, Chlorocebus sabaeus; details: Chlorocebus sabaeus, Vero, 72 h
[23] = Cytotoxicity against C3H cells assessed as alteration in morphology after 3 days; type: cell-based, Mus musculus; details: for EC50: Mus musculus, C3H, 72 h; for MCC at 72 h: mouse, C3H cells
[24] = test system: CCRF-CEM; assay: Cytotoxicity against CEM cells assessed as cell growth after 3 days; type: functional; details: Homo sapiens, 72 h
[25] = test system: Vesicular stomatitis virus; assay: microbe, parasite or virus in culture; details: HEL
[26] = test system: Vesicular stomatitis virus; assay: microbe, parasite or virus in culture; details: HeLa
[27] = test system: Moloney murine sarcoma virus; details: C3H
[28] = as §1; type: cell-based, Chlorocebus sabaeus; details: chlorocebus sabaeus, Vero cells
[29] = Homo sapiens, CCRF-HSB-2, 72 h, read-out: MCC
[30] = Homo sapiens, MOLT-3, 72 h, read-out: MCC
[31] = Homo sapiens, HEL, 72 h, read-out: CC50

| Compound | EC50 [2] [µg/mL] | EC50 [3] [µg/mL] | EC50 [4] [µg/mL] | EC50 [5] [µg/mL] | EC50 [6] [µg/mL] | EC50 [7] [µg/mL] | EC50 [8] [µg/mL] | MCC [9] [µg/mL] | MCC [10, 29] [µg/mL] | MCC [11, 30] [µg/mL] | EC50 [15] [µg/mL] | EC50 [16] [µg/mL] | EC50 [17] [µg/mL] | EC50 [18] [µg/mL] | EC50 [19] [µg/mL] | EC50 [20] [µg/mL] | EC50 [21] [µg/mL] | EC50 [25] [µg/mL] | EC50 [26] [µg/mL] | EC50 [27] [µg/mL] | other results |
| --- | --- | --- | --- | --- | --- | --- | --- | --- | --- | --- | --- | --- | --- | --- | --- | --- | --- | --- | --- | --- | --- |
| Nc1ncn(C[C@@H](CO)OCP(=O)(O)O)c(=O)n1 | 0.24 (≈ 0.857 µM) | 0.45 (≈ 1.61 µM) | 0.06 (≈ 0.214 µM) | 0.039 (≈ 0.139 µM) | 0.23 (≈ 0.821 µM) | 0.082 (≈ 0.293 µM) | 0.71 (≈ 2.53 µM) | > 100 | 16 | 16 | > 100 | > 100 | > 100 | > 100 | > 100 | > 100 | > 100 | > 100 | > 100 | ≥ 4 | EC50 [1]: > 100 µg/mL; CC50 [12, 31]: 225 µg/mL (≈ 803 µM); EC50 [13]: 20 µg/mL (≈ 71.4 µM); EC50 [14]: 20 µg/mL (≈ 71.4 µM); EC50 [22]: > 100 µg/mL; EC50 [23]: > 20 µg/mL; CC50 [24]: 30 µg/mL (≈ 107 µM) |
| Nc1ncn(C[C@H]2COP(=O)(O)CO2)c(=O)n1 | 0.48 (≈ 1.83 µM) | 0.61 (≈ 2.33 µM) | 0.12 (≈ 0.458 µM) | 0.04 (≈ 0.153 µM) | 0.07 (≈ 0.267 µM) | 0.06 (≈ 0.229 µM) | – | > 100 | 200 | 33 | > 200 | > 200 | > 200 | > 200 | > 200 | > 200 | > 200 | > 200 | > 200 | > 20 | MCC [1]: > 200 µg/mL; CC50 [12, 31]: > 100 µg/mL; MCC at 72 h [28]: > 200 µg/mL; MCC at 72 h [23]: 100 µg/mL |
| CCCCCCCCCCCCCCCCOCCOP1(=O)CO[C@@H](Cn2cnc(N)nc2=O)CO1 (stereo partly specified) | 0.004 (≈ 0.00754 µM) | 0.082 (≈ 0.155 µM) | 0.0014 (≈ 0.00264 µM) | 0.0008 (≈ 0.00151 µM) | 0.00038 (≈ 0.000716 µM) | 0.00014 (≈ 0.000264 µM) | < 0.512 | 16 | – | – | > 3.2 | 16 (≈ 30.2 µM) | > 3.2 | 16 (≈ 30.2 µM) | 16 (≈ 30.2 µM) | 16 (≈ 30.2 µM) | 16 (≈ 30.2 µM) | > 3.2 | > 3.2 | > 4 | MCC [1]: 16 µg/mL; MCC [10]: 1.6 µg/mL; MCC [11]: 0.56 µg/mL; CC50 [12]: 6.4 µg/mL (≈ 12.1 µM); EC50 [13]: > 0.8 µg/mL; EC50 [14]: > 0.8 µg/mL; MCC at 72 h [28]: 80 µg/mL; MCC at 72 h [23]: 20 µg/mL; CC50 [24]: 2 µg/mL (≈ 3.77 µM) |
| CCCCCCCCCCCCCCCCCCOP1(=O)CO[C@@H](Cn2cnc(N)nc2=O)CO1 (stereo partly specified) | 1.31 (≈ 2.55 µM) | 1.66 (≈ 3.23 µM) | 0.04 (≈ 0.0777 µM) | 0.009 (≈ 0.0175 µM) | 0.0037 (≈ 0.00719 µM) | 0.0014 (≈ 0.00272 µM) | 0.051 (≈ 0.0991 µM) | 8 | ≥ 5 | 0.8 | > 40 | > 8 | > 40 | > 8 | > 8 | > 8 | > 8 | > 1.6 | > 40 | > 4 | EC50 [1]: 200 µg/mL (≈ 389 µM); CC50 [12, 31]: > 100 µg/mL; EC50 [13]: > 20 µg/mL; EC50 [14]: > 20 µg/mL; EC50 [22]: 40 µg/mL (≈ 77.7 µM); EC50 [23]: 20 µg/mL (≈ 38.9 µM); CC50 [24]: 12 µg/mL (≈ 23.3 µM) |
| CC(C)(C)C(=O)OCOP1(=O)CO[C@@H](Cn2cnc(N)nc2=O)CO1 (stereo partly specified) | 0.24 (≈ 0.638 µM) | 0.32 (≈ 0.85 µM) | 0.11 (≈ 0.292 µM) | 0.02 (≈ 0.0531 µM) | 0.061 (≈ 0.162 µM) | 0.067 (≈ 0.178 µM) | 0.069 (≈ 0.183 µM) | > 40 | 4 | ≥ 4 | > 20 | > 100 | > 20 | > 100 | > 100 | > 100 | > 100 | > 20 | > 20 | > 20 | MCC [1]: 100 µg/mL; CC50 [12, 31]: 14 µg/mL (≈ 37.2 µM); EC50 [13]: > 20 µg/mL; EC50 [14]: > 20 µg/mL; MCC at 72 h [28]: > 100 µg/mL; MCC at 72 h [23]: 100 µg/mL; CC50 [24]: 18 µg/mL (≈ 47.8 µM) |
| Nc1ncnc2c1ncn2C[C@H](O)CO [(S)-DHPA] | – | – | – | – | – | – | – | – | – | – | > 200 | > 200 | > 200 | > 200 | 200 (≈ 956 µM) | > 200 | > 200 | – | 120 (≈ 574 µM) | – | MCC [1]: > 200 µg/mL; MCC at 72 h [28]: > 200 µg/mL |

Source: ChEMBL document CHEMBL1138246, “Ester prodrugs of cyclic 1-(S)-[3-hydroxy-2-(phosphonomethoxy)propyl]-5-azacytosine: synthesis and antiviral activity” (J Med Chem, 2007)
